Test results published in patent US20220296573A1, “NOVEL COMPOUNDS AND PHARMACEUTICAL COMPOSITIONS THEREOF FOR THE TREATMENT OF INFLAMMATORY DISORDERS” (Galapagos NV, priority 2019, published 2022).

What was measured:
[1] = test system: CL097 triggered TNFα release in human whole blood; experiment: Ex vivo human TNFα release inhibition (whole blood assay); format: cell-based; conditions: CL097 2 μg/mL, 3 h 30 min
Source text: The aim of the assay is to evaluate the activity of compounds of the invention on the activated TLR/IRAK-4 pathway in an ex vivo human whole blood setting. Toll-like receptors (TLRs) are pattern recognition receptors that recognize a wide variety of microbial molecules, called pathogen-associated molecular patterns (PAMPs). Human TLR7 and TLR8 recognize imidazoquinoline compounds (e.g., CL097—CAS n #1026249-18-2) and single stranded RNAs as their natural ligands. Activation of TLRs leads to the production of several cytokines (e.g., IFNα, TNFα, IL-8, IL-6) by the TLR agonist-treated cells, whereas IRAK4 leads to the production of IFNα. Cytokine release is used as readout in this assay and represents a measure for the level of inhibition of the TLR/IRAK-4 pathway by the tested compound. It should be noted that in the context of the complete organism, other sources for these cytokines exist that are not dependent on the TLR/IRAK-4 pathway, such as e.g., macrophages (upon activation of the Fcγ receptor (Yan et al. 2012)) or T cells (upon activation of the T cell receptor (Brehm, Daniels, and Welsh 2005)).
Blood is collected from healthy volunteers into lithium heparin tubes by venipuncture, then gently inverted several times to prevent clotting and incubated for at least 15 min at 37° C. on a rocking mixer shaker. Then, 100 μL of blood is dispensed into polypropylene 96-well microplate and pre-incubated in duplicate with 0.3% DMSO or test compound at different concentrations (from 30 to 0.01 μM, 3-fold dilutions to get 0.3% DMSO at the final) for 15 min at 37° C. After this pre-incubation, blood is triggered with CL097 (2 μg/mL from 1 mg/mL solution in water; InvivoGen, tlr1-c97) for 3 h 30 min at 37° C. Microtubes are centrifuged at 5000×g for 10 min at 4° C. and approximately 40 μL of plasma are collected into a polystyrene 96-well plate. Plasma can be analyzed freshly, within 30 min after triggering, or frozen at −80° C. Finally, the quantification of IFNα and IFNα were performed in the plasma using AlphaLISA Kit for […] according to the manufacturer's instructions and read on the Ensight (PerkinElmer).
For each blood sample, the TNFα concentrations of the samples were determined from the fit. Data were then expressed as a percentage of inhibition (PIN) for each replicate using the formula:
With mean TNFα with CL097=mean TNFα concentration of replicate samples triggered with CL097; TNFαsample1=TNFα concentration of sample 1; mean TNFα with vehicle=mean TNFα concentration of replicate samples treated with vehicle.
Curve fitting for pIC50 determination were generated using mean PIN±sem. Graphs and pIC50 calculations were derived using Prism 5.03 software (GraphPad).

Human Hepatocyte = experiment: Metabolic stability in human hepatocytes; format: in vitro ADME; conditions: human cryopreserved hepatocytes, 1 μM
Description: (§1) The aim of this assay is to determine the metabolic stability of the compound in hepatocytes (cryopreserved) of different species. Low hepatocyte stability may result in the formation of unwanted metabolites, high clearance, and therefore is not desirable.
(§2) A 10 mM stock solution of test compound in DMSO was first diluted in DMSO to 3 mM, and then in modified Krebs-Henseleit buffer (Sigma, K3753) to 5 μM. This compound dilution was added to a suspension of pooled cryopreserved hepatocytes (BioreclamationIVT) at 37° C. under gentle shaking.
(§3) Final reaction conditions were: 1 μM of test compound, 0.03% DMSO, 0.5 million viable hepatocytes/mL, and 75 μL incubation volume.
(§4) Testosterone (1 μM) and 7-hydroxycoumarin (1 μM) were used, respectively as phase I and phase II metabolic reaction controls.
(§5) After 0, 10, 20, 45, 90, 120 and 180 min of incubation, the reaction was terminated with 225 μL of MeCN:MeOH (2:1) containing 100 ng/mL of diclofenac as analytical internal standard. Samples were mixed, centrifuged and the supernatant analyzed by LC-MS/MS.
(§6) The instrument responses (ratios of test compound and internal standard peak areas) were referenced to the zero time point samples (considered as 100%) in order to determine the percentage of compound remaining.
(§7) Plots of percentage compound remaining were used to determine the intrinsic clearance in the hepatocyte incubations using the following equations:
(§8) Scaled Clint [L/h/kg]=Clint [μL/min/10^6 cells]*#(10) cells/g liver*60*(1/10^6) Scaled Clint unbound [L/h/kg]=Clint [L/h/kg]/Fu,inc where: fu,inc equals hepatocyte binding, derived from microsomal binding (fu,mic) by following equation: […]

Mouse Hepatocyte = experiment: Metabolic stability in mouse hepatocytes; format: in vitro ADME; conditions: mouse cryopreserved hepatocytes, 1 μM
Description: as §1, §2, §3, §4, §5, §6, §7, §8

| IC50 [1] [nM] | Human Hepatocyte stability (Perc. remaining at 90 min) (Human Hepatocyte) [Perc.] | Mouse Hepatocyte stability (Perc. remaining at 90 min) (Mouse Hepatocyte) [Perc.] | SMILES |
| --- | --- | --- | --- |
| 0.1 to 500 | 101.5 | 103.95 | COc1cc2nc(C3COCCO3)cn2cc1NC(=O)c1cccn(C2CC2)c1=O (racemic) [Compound 1, 1-cyclopropyl-N-[2-(1,4-dioxan-2-yl)-7-methoxy-imidazo[1,2-a]pyridin-6-yl]-2-oxo-pyridine-3-carboxamide] |
| 1000 to 5000 |  |  | COc1cc2nc(C3COCCO3)cn2cc1NC(=O)c1cccn(C2CCC2)c1=O (stereo not shown) [Compound 5, 1-cyclobutyl-N-[2-(1,4-dioxan-2-yl)-7-methoxy-imidazo[1,2-a]pyridin-6-yl]-2-oxo-pyridine-3-carboxamide] |
|  | 92.1 | 73.3 | CNC(=O)c1cc2nc(C3COCCO3)cn2cc1NC(=O)c1cccc(C(F)(F)F)n1 (stereo not shown) [Compound 9, 2-(1,4-dioxan-2-yl)-N-methyl-6-(6-(trifluoromethyl)picolinamido)imidazo[1,2-a]pyridine-7-carboxamide] |
| 0.1 to 500 |  |  | COc1cc2nc(C3CCS(=O)(=O)CC3)cn2cc1NC(=O)c1cccn(C2CC2)c1=O [Compound 23, 1-cyclopropyl-N-(2-(1,1-dioxidotetrahydro-2H-thiopyran-4-yl)-7-methoxyimidazo[1,2-a]pyridin-6-yl)-2-oxo-1,2-dihydropyridine-3-carboxamide] |
| 0.1 to 500 | 99.15 | 80.6 | CC(F)(F)c1cccc(C(=O)Nc2cn3cc(C4COCCO4)nc3cc2C(N)=O)n1 (stereo not shown) [Compound 11, 6-(6-(1,1-difluoroethyl)picolinamido)-2-(1,4-dioxan-2-yl)imidazo[1,2-a]pyridine-7-carboxamide] |
